Measured values from article PMC10686834, “Targeting myeloid chemotaxis to reverse prostate cancer therapy resistance” (Nature, 2023).
pIC50: −log10 of the molar value.

Experiments:
[1] = set-up: method as in AZD5069 Investigator Brochure (IB); settings: ref AZD5069 Investigator Brochure (IB), cited from earlier work
rat = settings: 1-month and 6-month rat studies; ref AZD5069 Investigator Brochure (IB); cited from earlier work
healthy volunteers = tested on: healthy volunteers; set-up: method as in AZD5069 Investigator Brochure (IB); settings: ref AZD5069 Investigator Brochure (IB), cited from earlier work
[2] = set-up: method as in AZD5069 Investigator Brochure (IB); settings: in vitro and in vivo studies; ref AZD5069 Investigator Brochure (IB); cited from earlier work
CACO-2 cells = tested on: CACO-2 cells; set-up: method as in AZD5069 Investigator Brochure (IB); settings: at 0.85 μmol/L, ref AZD5069 Investigator Brochure (IB); cited from earlier work
[3] = tested on: patients with bronchiectasis; settings: cited from earlier work
P-glycoprotein (P-gp) = tested on: P-glycoprotein (P-gp); set-up: method as in AZD5069 Investigator Brochure (IB); settings: at concentrations of up to 100 μmol/L; ref AZD5069 Investigator Brochure (IB); cited from earlier work
CYP1A2 = tested on: CYP1A2; set-up: method as in AZD5069 Investigator Brochure (IB); settings: at concentrations of up to 100 μmol/L; ref AZD5069 Investigator Brochure (IB); cited from earlier work
CYP3A4 [4] = tested on: CYP3A4; set-up: method as in AZD5069 Investigator Brochure (IB); settings: co-administration with ketoconazole; ref AZD5069 Investigator Brochure (IB); cited from earlier work
[5] = tested on: gastric emptying and intestinal motility; settings: rat, ref AZD5069 Investigator Brochure (IB), cited from earlier work
[6] = tested on: patients with persistent uncontrolled asthma; set-up: method as in AZD5069 Investigator Brochure (IB); settings: asthma study NCT01704495, 161 patients receiving 45 mg BD, 6-month safety analysis set; ref AZD5069 Investigator Brochure (IB); cited from earlier work
CYP2C9 = tested on: CYP2C9; set-up: method as in AZD5069 Investigator Brochure (IB); settings: ref AZD5069 Investigator Brochure (IB); cited from earlier work
CYP2C8 = tested on: CYP2C8; set-up: method as in AZD5069 Investigator Brochure (IB); settings: ref AZD5069 Investigator Brochure (IB); cited from earlier work
CYP3A4 [7] = tested on: CYP3A4; set-up: method as in AZD5069 Investigator Brochure (IB); settings: at concentrations of up to 100 μmol/L; ref AZD5069 Investigator Brochure (IB); cited from earlier work
[8] = tested on: AR activity and AR-V7 signatures; experiment: RNA profiling (HTG EdgeSeq) of paired FFPE tumour biopsies: AR activity and AR-V7 signatures; format: in vivo, human; settings: paired biopsies with decreased myeloid cell density (seven pairs)
Experimental: RNA profiling of FFPE tumour biopsies collected before and after starting AZD5069 was carried out by HTG EdgeSeq (HTG Molecular Diagnostics) using the HTG human transcriptome panel containing 19,616 nuclease protection probes (NPPs), including 19,398 gene target-specific 50-nucleotide probes, 100 negative control probes, 92 probes for RNA controls established by the External RNA Control Consortium, 22 probes that measure gDNA and 4 positive control probes. The assay was carried out with a minimum of 11 mm^2 of FFPE tumour micro-dissected sections. The sections were lysed according to the manufacturer’s instructions, and added to a 96-well plate on the HTG EdgeSeq Processor (HTG Molecular Diagnostics) on which a quantitative nuclease protection assay was carried out. The addition of DNA nuclease protection probes (NPPs) was automated and they were allowed to hybridize for 16 hours to the target mRNAs. The excess non-hybridized DNA probes and non-hybridized mRNA were removed by S1 digestion leaving only NPPs hybridized to mRNA. […] After clean-up and quantification by quantitative PCR using the kit KAPA Library Quantification Kit Illumina platforms, the libraries were pooled and sequenced on the NextSeq 500 using a High Throughput 75-cycle v.2.5 kit (Illumina). […] Data were analysed using the HTG EdgeSeq Reveal analysis software. […]

plasma protein = tested on: plasma protein; set-up: method as in AZD5069 Investigator Brochure (IB); settings: ref AZD5069 Investigator Brochure (IB); cited from earlier work
CYP2E1 = tested on: CYP2E1; set-up: method as in AZD5069 Investigator Brochure (IB); settings: at concentrations of up to 100 μmol/L; ref AZD5069 Investigator Brochure (IB); cited from earlier work
[9] = set-up: method as in AZD5069 Investigator Brochure (IB); settings: ref AZD5069 Investigator Brochure (IB); cited from earlier work
[10] = bronchiectasis study NCT01255592, on AZD5069, ref AZD5069 Investigator Brochure (IB)

C[C@@H](Oc1cc(NS(=O)(=O)N2CCC2)nc(SCc2cccc(F)c2F)n1)[C@@H](O)CO [AZD5069]
tmax ([1]; fasting conditions): ~ 2 hours
initial half-life ([1]; plasma): 4 h
terminal half-life ([1]; plasma): 11 h
apparent volume of distribution [1]: ~ 53 L
food effect [1]: reduces the peak concentration but total exposure (AUC) is unchanged
fraction of the drug renally excreted [1]: Less than 10%
total plasma clearance [1]: ~ 8 L/h
systemic exposure versus dose ([1]; single and repeated BD dosing): proportional to the dose
dose with enlarged mandibular lymph nodes in both sexes (rat): ≥ 40 mg/kg BD
adverse effects considered to be related to treatment (healthy volunteers; 202 healthy volunteers): no clinically significant adverse effects
doses with a reduction in blood neutrophil counts (healthy volunteers; healthy volunteers): ≥ 5.45 mg
genotoxicity [2]: not genotoxic
efflux ratio (CACO-2 cells): 57
mean reduction in blood neutrophils ([3]; bronchiectasis study NCT01255592, 80 mg BD, ref AZD5069 Investigator Brochure (IB)): approximately 16%
reduction in sputum neutrophils compared with placebo ([3]; bronchiectasis study NCT01255592, after 4 weeks’ treatment, ref AZD5069 Investigator Brochure (IB)): 69%
patients reporting adverse events (AEs) [3, 10]: 23 of 26
patients who withdrew because of AEs [3, 10]: 5
infections reported ([3]; in vivo): 34.6%
inhibition of P-glycoprotein (P-gp) (P-glycoprotein (P-gp)): not an inhibitor
inhibition of CYP1A2 (CYP1A2): not an inhibitor
increased exposure (AUC) (CYP3A4 [4]): 2.1 fold
increased exposure (Cmax) (CYP3A4 [4]): 1.6 fold
No Observed Effect Level (NOEL) ([5]; gastric emptying and intestinal motility): 60 mg/kg
dose level with inhibition of gastric emptying and intestinal motility [5]: 350 mg/kg
patients who discontinued the drug due to neutrophil counts 1x10^9/L [6]: 4
pIC50 (CYP2C9): ~4.27
pIC50 (CYP2C8): ~4.00
inhibition of CYP3A4 (CYP3A4 [7]): not an inhibitor
AR activity and AR-V7 mRNA signatures in tumour biopsies [8]: downregulation of AR activity and AR-V7 signatures
bound to plasma protein (plasma protein): > 96%
inhibition of CYP2E1 (CYP2E1): not an inhibitor
phototoxic potential [9]: low risk for phototoxic potential
